Experimental findings from ChEMBL document CHEMBL1130200, “Discovery of 3-aminobenzyloxycarbonyl as an N-terminal group conferring high affinity to the minimal phosphopeptide sequence recognized by the Grb2-SH2 domain” (J Med Chem, 1997) are described below.

Molecules are shown by their SMILES. Where a SMILES comes first, the peptide text is derived from it. [ ]: non-standard residue; d: D form. The star is where a group is joined. pY = N[C@@H](Cc1ccc(OP(=O)(O)O)cc1)C(=O)O; 2Abz = Nc1ccccc1C(=O)O; Cbz = O=C(OCc1ccccc1)*

This test deals with Growth factor receptor-bound protein 2 (Homo sapiens, UniProt P62993). Nature of the test: Inhibition of Grb2-SH2 domain binding to phospho-EGF receptor intracellular C-terminal domain.
Chain of Growth factor receptor-bound protein 2 (P62993 whole entry, the tested form may be a part): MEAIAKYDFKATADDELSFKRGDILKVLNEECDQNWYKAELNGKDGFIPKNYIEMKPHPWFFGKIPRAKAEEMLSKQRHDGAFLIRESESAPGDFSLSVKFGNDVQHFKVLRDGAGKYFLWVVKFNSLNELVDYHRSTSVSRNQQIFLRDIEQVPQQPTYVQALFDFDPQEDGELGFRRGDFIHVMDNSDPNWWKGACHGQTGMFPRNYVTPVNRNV
What is called IC50 is the concentration that gives 50% inhibition. A lower IC50 goes with higher potency. `CC[C@H](C)[C@H](NC(=O)[C@@H](N)Cc1ccc(OP(=O)(O)O)cc1)C(=O)N[C@@H](CC(N)=O)C(N)=O` (H-[pY]-Ile-Asn-NH2) returned a concentration for half-maximal inhibition (IC50) of 56.9 µM.

Take `CC[C@H](C)[C@H](NC(=O)[C@H](Cc1ccc(OP(=O)(O)O)cc1)NC(=O)[C@@H](N)CCC(=O)O)C(=O)N[C@@H](CC(N)=O)C(N)=O` (H-E[pY]IN-NH2): the IC50 was 7.9 µM.

In the case of `CC[C@H](C)[C@H](NC(=O)[C@H](Cc1ccc(OP(=O)(O)O)cc1)NC(=O)OCc1cccc(N)c1)C(=O)N[C@@H](CC(N)=O)C(N)=O`, the IC50 worked out at 0.065 µM.

`CC[C@H](C)[C@H](NC(=O)[C@H](Cc1ccc(OP(=O)(O)O)cc1)NC(=O)[C@H](CCC(=O)O)NC(=O)c1ccccc1N)C(=O)N[C@@H](CC(N)=O)C(N)=O` (H-[2Abz]E[pY]IN-NH2) returned an IC50 of 0.022 µM.

On to `CC[C@H](C)[C@H](NC(=O)[C@H](Cc1ccc(OP(=O)(O)O)cc1)NC(=O)OCc1ccccc1)C(=O)N[C@@H](CC(N)=O)C(N)=O` (Cbz-[pY]-Ile-Asn-NH2), for which the IC50 amounted to 6.35 µM. This IC50 lies about 290-fold higher than the previous one.

Regarding `CC[C@H](C)[C@H](NC(=O)[C@H](Cc1ccc(OP(=O)(O)O)cc1)NC(C)=O)C(=O)N[C@@H](CC(N)=O)C(N)=O` (Ac-[pY]-Ile-Asn-NH2), the IC50 was 8.64 µM.
